Assay results: patent US20260284208A1, “SYSTEM” (Oxford University Innovation Limited, priority 2023, published 2026)

Tested on: library of 8,380 IKZF3 degrons (ZF-eGFP/mCherry reporter) in Jurkat cells
Experiment: Pooled library screen (FACS, NGS, limma voom LogFC of positive vs negative read counts)
Type: cell-based, human
Procedure: A library of 8,380 IKZF3 degrons was cloned into pLVX-Sprout to create the eGFP/mCherry protein degradation reporter plasmid pool. A lentivirus pool was then generated using the Lenti-X lentiviral vector production method.
Jurkat cells were transduced at a multiplicity of infection of <0.3 with the lentivirus vector library in order to maximise the number of cells with a single integration. Transductions were carried out in 6 well TC-treated cell culture dishes (Falcon) with 3×10^6 cells per well. Cells were incubated for 2 days at 37° C. and 5% CO2 before the supernatant was removed and replaced with fresh media. 6 days post-transduction, mCherry+ cells were isolated via FACS using the FACS Aria Fusion (BD) in a buffer containing PBS (Gibco), 2 mM EDTA (Gibco), 25 mM HEPES (Sigma) and 1% BSA (Sigma). 8 days later, cells were treated with DMSO or a thalidomide analog for 18 hours at 37° C. and 5% CO2. mCherry+GFPlow and NOT(mCherry+GFPlow) cells were sorted by FACS using the FACS Aria Fusion (BD). DMSO treated cells were used to set the mCherry+GFPlow gate and dead cells were excluded from sorting by staining cells with 1 μg/mL DAPI (ThermoFisher). gDNA was isolated using the Maxwell RSC 48 (Promega). gDNA from cells that were unsorted and untreated were also isolated to determine the library representation on the day of compound treatment. Throughout the screen >600× coverage of the library was maintained. 3 biological replicates were carried out with a new transduction taking place each time.
A two-step PCR was used where the first PCR (PCR1) amplified the integrated degron sequence from gDNA and the second PCR (PCR2) added Illumina adaptors and barcodes to permit multiplexing. See Supp F for PCR1 and PCR2 primers. Q5 Hot Start High-Fidelity 2× Master Mix (New England Biolabs) was used for both PCRs. Sufficient gDNA was amplified in PCR1 in order to maintain >600× coverage and amplicons were purified using solid phase reversible immobilization (SPRI) beads (Beckman Coulter). Purified PCR1 products were analysed on the Tapestation 4200 (Agilent) to confirm purity prior to proceeding to PCR2. Sufficient PCR1 product was amplified in PCR2 in order to maintain >600× coverage and amplicons were run on a 2% agarose TAE gel. Target bands were excised and purified using the NucleoSpin Gel and PCR Clean-up Kit (Machery Nagel). Amplicons were analysed on the Tapestation 4200 and quantified using Qubit dsDNA HS kit (ThermoFisher). PCR products were pooled and sequenced as paired-reads on the NovaSeq (Illumina) using a SP2 200 cycles kit (Illumina).
Count distributions, percentage of read mapping, library coverage and replicate correlation per sample were assessed for QC purposes.
To carry out the library screen, we used the same plasmid construct as in our earlier flow cytometry assays, but pooling all 8,380 mutants together into one Jurkat population, ensuring a copy number of one plasmid per cell (FIG. 4B). […] These GFP-negative cells were then separated from the remaining GFP-positive population using fluorescence activated cell sorting (FACS). These two populations were then sequenced and the relative abundance of every mutant in both populations compared to provide a log FC value for each mutant sequence. This value indicated how frequently a sequence is observed in the GFP-negative population relative to the GFP-positive population, and therefore how effective a degron it is for that particular IMID compound.

O=C1CCC(N2C(=O)c3ccccc3C2=O)C(=O)N1 (centres unmarked) [A32, 2-(2,6-dioxopiperidin-3-yl)isoindoline-1,3-dione]
A32_logFC (Degron-ID 794, SEQ ID NO 61, 46F_47E_49E_50I_52G_53A_54R_55F_67L): 3.549
A32_logFC (Degron-ID 834, SEQ ID NO 125, 46F_47E_49E_50V_52G_53A_54R_55F_67L): 3.292
A32_logFC (Degron-ID 911, SEQ ID NO 130, 46F_47E_49P_50I_52G_53A_54N_55F_67L): 3.269
A32_logFC (Degron-ID 914, SEQ ID NO 108, 46F_47E_49P_50I_52G_53A_54R_55F_67L): 3.367
A32_logFC (Degron-ID 915, SEQ ID NO 119, 46F_47E_49P_50I_52G_53A_54S_55F_67L): 3.325
A32_logFC (Degron-ID 917, SEQ ID NO 116, 46F_47E_49P_50I_52G_53A_54V_55F_67L): 3.331
A32_logFC (Degron-ID 1752, SEQ ID NO 91, 46F_47I_49E_50I_52G_53A_54P_55F_67L): 3.433
A32_logFC (Degron-ID 2392, SEQ ID NO 93, 46F_47L_49P_50V_52G_53A_54P_55F_67L): 3.414
A32_logFC (Degron-ID 2881, SEQ ID NO 123, 46F_47Q_49D_50I_52G_53A_54C_55F_67L): 3.299
A32_logFC (Degron-ID 2887, SEQ ID NO 82, 46F_47Q_49D_50I_52G_53A_54I_55F_67L): 3.467
A32_logFC (Degron-ID 2888, SEQ ID NO 126, 46F_47Q_49D_50I_52G_53A_54K_55F_67L): 3.282
A32_logFC (Degron-ID 2892, SEQ ID NO 112, 46F_47Q_49D_50I_52G_53A_54P_55F_67L): 3.346
A32_logFC (Degron-ID 2941, SEQ ID NO 79, 46F_47Q_49E_50I_52G_53A_54C_55F_67L): 3.477
A32_logFC (Degron-ID 2943, SEQ ID NO 71, 46F_47Q_49E_50I_52G_53A_54E_55F_67L): 3.525
A32_logFC (Degron-ID 2948, SEQ ID NO 84, 46F_47Q_49E_50I_52G_53A_54K_55F_67L): 3.461
A32_logFC (Degron-ID 2949, SEQ ID NO 65, 46F_47Q_49E_50I_52G_53A_54L_55F_67L): 3.534
A32_logFC (Degron-ID 2950, SEQ ID NO 54, 46F_47Q_49E_50I_52G_53A_54M_55F_67L): 3.574
A32_logFC (Degron-ID 2953, SEQ ID NO 58, 46F_47Q_49E_50I_52G_53A_54Q_55F_67L): 3.557
A32_logFC (Degron-ID 2956, SEQ ID NO 137, 46F_47Q_49E_50I_52G_53A_54T_55F_67L): 3.256
A32_logFC (Degron-ID 2988, SEQ ID NO 97, 46F_47Q_49E_50V_52G_53A_54K_55F_67L): 3.401
A32_logFC (Degron-ID 2990, SEQ ID NO 72, 46F_47Q_49E_50V_52G_53A_54M_55F_67L): 3.522
A32_logFC (Degron-ID 2991, SEQ ID NO 55, 46F_47Q_49E_50V_52G_53A_54N_55F_67L): 3.561
A32_logFC (Degron-ID 2992, SEQ ID NO 64, 46F_47Q_49E_50V_52G_53A_54P_55F_67L): 3.535
A32_logFC (Degron-ID 2995, SEQ ID NO 67, 46F_47Q_49E_50V_52G_53A_54S_55F_67L): 3.531
A32_logFC (Degron-ID 3000, SEQ ID NO 100, 46F_47Q_49N_50I_52G_53A_54A_55F_67L): 3.386
A32_logFC (Degron-ID 3001, SEQ ID NO 105, 46F_47Q_49N_50I_52G_53A_54C_55F_67L): 3.375
A32_logFC (Degron-ID 3007, SEQ ID NO 7, 46F_47Q_49N_50I_52G_53A_54I_55F_67L): 3.811
A32_logFC (Degron-ID 3008, SEQ ID NO 134, 46F_47Q_49N_50I_52G_53A_54K_55F_67L): 3.259
A32_logFC (Degron-ID 3013, SEQ ID NO 127, 46F_47Q_49N_50I_52G_53A_54Q_55F_67L): 3.279
A32_logFC (Degron-ID 3014, SEQ ID NO 133, 46F_47Q_49N_50I_52G_53A_54R_55F_67L): 3.262
A32_logFC (Degron-ID 3015, SEQ ID NO 114, 46F_47Q_49N_50I_52G_53A_54S_55F_67L): 3.343
A32_logFC (Degron-ID 3016, SEQ ID NO 6, 46F_47Q_49N_50I_52G_53A_54T_55F_67L): 3.867
A32_logFC (Degron-ID 3017, SEQ ID NO 80, 46F_47Q_49N_50I_52G_53A_54V_55F_67L): 3.473
A32_logFC (Degron-ID 3047, SEQ ID NO 106, 46F_47Q_49N_50V_52G_53A_54I_55F_67L): 3.374
A32_logFC (Degron-ID 3057, SEQ ID NO 94, 46F_47Q_49N_50V_52G_53A_54V_55F_67L): 3.409
A32_logFC (Degron-ID 3060, SEQ ID NO 68, 46F_47Q_49P_50I_52G_53A_54A_55F_67L): 3.529
A32_logFC (Degron-ID 3062, SEQ ID NO 8, 46F_47Q_49P_50I_52G_53A_54D_55F_67L): 3.806
A32_logFC (Degron-ID 3066, SEQ ID NO 120, 46F_47Q_49P_50I_52G_53A_54H_55F_67L): 3.318
A32_logFC (Degron-ID 3067, SEQ ID NO 10, 46F_47Q_49P_50I_52G_53A_54I_55F_67L): 3.792
A32_logFC (Degron-ID 3068, SEQ ID NO 90, 46F_47Q_49P_50I_52G_53A_54K_55F_67L): 3.436
A32_logFC (Degron-ID 3069, SEQ ID NO 107, 46F_47Q_49P_50I_52G_53A_54L_55F_67L): 3.373
A32_logFC (Degron-ID 3071, SEQ ID NO 50, 46F_47Q_49P_50I_52G_53A_54N_55F_67L): 3.58
A32_logFC (Degron-ID 3074, SEQ ID NO 62, 46F_47Q_49P_50I_52G_53A_54R_55F_67L): 3.549
A32_logFC (Degron-ID 3075, SEQ ID NO 11, 46F_47Q_49P_50I_52G_53A_54S_55F_67L): 3.79
A32_logFC (Degron-ID 3076, SEQ ID NO 56, 46F_47Q_49P_50I_52G_53A_54T_55F_67L): 3.56
A32_logFC (Degron-ID 3079, SEQ ID NO 109, 46F_47Q_49P_50I_52G_53A_54Y_55F_67L): 3.361
A32_logFC (Degron-ID 3080, SEQ ID NO 129, 46F_47Q_49P_50Q_52G_53A_54A_55F_67L): 3.273
A32_logFC (Degron-ID 3081, SEQ ID NO 138, 46F_47Q_49P_50Q_52G_53A_54C_55F_67L): 3.255
A32_logFC (Degron-ID 3097, SEQ ID NO 92, 46F_47Q_49P_50Q_52G_53A_54V_55F_67L): 3.423
A32_logFC (Degron-ID 3101, SEQ ID NO 83, 46F_47Q_49P_50V_52G_53A_54C_55F_67L): 3.465
